This is an account of results in PMC11064632, “Tetracyclic homoisoflavanoid (+)-brazilin: a natural product inhibits c-di-AMP-producing enzyme and Streptococcus mutans biofilms” (Microbiology Spectrum, 2024).

For orientation: inhibition means how much of the control response was suppressed. The Kd is the free concentration of one partner at which half of the binding sites on the other are occupied at equilibrium, for simple one-to-one binding. For orientation: Km means the substrate concentration at which the rate is half of its maximum. In general, Vmax refers to the top rate of the reaction or transport when substrate is in excess.

Counter-ions that a name gives are not always drawn.

In data set [1] the target is T1, smDAC (S. mutans diadenylate cyclase, CdaA/DacA family) (Streptococcus mutans, UniProt Q8DTC4).
T1 construct: recombinant smDAC (from 116aa to 265aa)
Briefly: biochemical. Details: HPLC quantification of conversion of ATP into c-di-AMP by recombinant smDAC. The following applies: read-out: Normalized Enzymatic Inhibition (%). The method, then: Eleven “hits” were validated using HPLC to eliminate false positives from the coralyne assay. […] (+)-Brazilin (NSC 8661), showing the greatest inhibitory activity, was further studied in a dose-dependent manner. Representative chromatograms of ATP (100 µM) and c-di-AMP (50 µM) standards were used as references to validate retention times (Fig. 3A and B). […] Representative chromatograms of HPLC reactions treated with dose-dependent concentrations were also obtained (Fig. S5). Excitingly, (+)-brazilin inhibited the conversion of ATP into c-di-AMP in a dose-dependent manner with an IC50 value of 25.1 ± 0.98 µM (Fig. 3H; Table S1). […] HPLC was also used to evaluate and compare bromophenol thiohydantoin, suramin, and tannic acid, all reported tmDisA inhibitors, to brazilin and 10% DMSO negative control.

Data set [2] has as its target T1, smDAC (S. mutans diadenylate cyclase, CdaA/DacA family). The experiment in a line: intrinsic tyrosine fluorescence quenching (modified Stern-Volmer); supported by HPLC enzyme inhibition, IC50 […], Ki […]. It is filed as binding.
For data set [3], the system named is Nc1ncnc2c1ncn2[C@@H]1O[C@H](COP(=O)(O)OP(=O)(O)OP(=O)(O)O)[C@@H](O)[C@H]1O. Briefly: purified protein. As to conditions: Mn2+ substrate-binding site.

T1 sequence (Q8DTC4 entry or part of it): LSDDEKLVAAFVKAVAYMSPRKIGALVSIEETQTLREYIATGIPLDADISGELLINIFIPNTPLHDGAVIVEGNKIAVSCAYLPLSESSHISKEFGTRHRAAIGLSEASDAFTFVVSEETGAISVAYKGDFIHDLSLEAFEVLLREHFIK

For the molecule `O=C1NC(=S)N/C1=C\c1cc(Br)cc(Br)c1O` [bromophenol thiohydantoin], the inhibition at 50 µM in data set [1] came to 3.7%.

In the case of `Cc1ccc(C(=O)Nc2ccc(S(=O)(=O)O)c3cc(S(=O)(=O)O)cc(S(=O)(=O)O)c23)cc1NC(=O)c1cccc(NC(=O)Nc2cccc(C(=O)Nc3cc(C(=O)Nc4ccc(S(=O)(=O)O)c5cc(S(=O)(=O)O)cc(S(=O)(=O)O)c45)ccc3C)c2)c1` [suramin hexasodium salt], the inhibition at 50 µM in data set [1] was 1.2%.

Regarding `Oc1ccc2c(c1)OC[C@]1(O)Cc3cc(O)c(O)cc3[C@H]21` [NSC 8661, (+)-brazilin], the Kd in data set [2] was found to be 11.9 µM. Further, in data set [1], the inhibition at 50 µM is 77.8% and the inhibition at 100 µM was 87.1%.

As for “smDAC (S. mutans diadenylate cyclase, CdaA/DacA family) (Streptococcus mutans UA159)”, in data set [3], the Km is recorded as 93.0 ± 3.98 µM and the Vmax turned out to be 5.54 µM/min.

Take `O=C(OC[C@H]1O[C@@H](OC(=O)c2cc(O)c(O)c(OC(=O)c3cc(O)c(O)c(O)c3)c2)[C@H](OC(=O)c2cc(O)c(O)c(OC(=O)c3cc(O)c(O)c(O)c3)c2)[C@@H](OC(=O)c2cc(O)c(O)c(OC(=O)c3cc(O)c(O)c(O)c3)c2)[C@@H]1OC(=O)c1cc(O)c(O)c(OC(=O)c2cc(O)c(O)c(O)c2)c1)c1cc(O)c(O)c(OC(=O)c2cc(O)c(O)c(O)c2)c1` [tannic acid]: in data set [1], the inhibition at 50 µM is 22.2%.
